The target of experiment [1] is T1, KRAS WT (Homo sapiens, UniProt P01116).
T1 construct: aa1-188 KRAS WT
The experiment is described as follows: HTRF nucleotide exchange assay, KRAS WT. Format: biochemical. The note with it: class symbols; for IC50: HTRF nucleotide exchange assay (NEA). A general note: TR-FRET usually uses a lanthanide donor and a delayed reading to cut background.

The target in experiment [2] is T2, KRAS G12D (Homo sapiens, UniProt P01116, G12D).
T2 construct: aa1-188 KRAS WT, HRAS WT, NRAS WT, or KRAS containing the G12D
T2 sequence (P01116 1-188 isoform P01116-2 G12D): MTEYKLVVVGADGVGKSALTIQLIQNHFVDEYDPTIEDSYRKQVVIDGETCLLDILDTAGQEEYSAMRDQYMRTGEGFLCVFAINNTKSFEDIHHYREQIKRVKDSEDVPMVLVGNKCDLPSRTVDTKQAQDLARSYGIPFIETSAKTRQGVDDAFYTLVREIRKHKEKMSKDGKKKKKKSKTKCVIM
The experiment is described as follows: HTRF nucleotide exchange assay, KRAS G12D. Format: biochemical. The note with it: HTRF nucleotide exchange assay (NEA), class symbols.

We go through 18 compounds from patent US20260347364A1, “PYRAZOLO[4,3-F]QUINAZOLINE DERIVATIVES AS MODULATORS OF G12D MUTANT KRAS USEFUL FOR THE TREATMENT OF CANCER” (JAZZ PHARMACEUTICALS IRELAND LTD., priority 2023, published 2026).

T1 sequence (P01116 1-188 isoform P01116-2): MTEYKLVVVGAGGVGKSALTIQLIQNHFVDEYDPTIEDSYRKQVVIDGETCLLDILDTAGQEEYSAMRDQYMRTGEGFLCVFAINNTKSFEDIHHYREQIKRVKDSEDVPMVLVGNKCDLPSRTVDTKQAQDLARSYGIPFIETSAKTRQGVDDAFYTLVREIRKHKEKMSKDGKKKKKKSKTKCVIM

For orientation: IC50 means the midpoint of a concentration-inhibition curve. A high value points to lower potency. `CCc1c(F)ccc2cc(O)cc(-c3c(C)c4nc(OC[C@@]56CCCN5C[C@H](F)C6)nc(N5CCCn6nc(C(=O)N(C)C)c(F)c6C5)c4c4cn(C)nc34)c12` [Example 180, 5-[4-(8-ethyl-7-fluoro-3-hydroxy-1-naphthyl)-2,5-dimethyl-7-[[(2R,8S)-2-fluoro-1,2,3,5,6,7-hexahydropyrrolizin-8-yl]methoxy]pyrazolo[4,3-f]quinazolin-9-yl]-3-fluoro-N,N-dimethyl-4,6,7,8-tetrahydropyrazolo[1,5-a][1,4]diazepine-2-carboxamide]: the IC50 in experiment [1] and in experiment [2] was no more than 0.01 µM each time.

`CCNC(=O)c1cc2n(n1)CCCN(c1nc(OC[C@@]34CCCN3C[C@H](F)C4)nc3c(C)c(-c4cc(O)cc5ccc(F)c(CC)c45)c4nn(C)cc4c13)C2` [Example 181, N-ethyl-5-[4-(8-ethyl-7-fluoro-3-hydroxy-1-naphthyl)-7-[[(2R,8S)-2-fluoro-1,2,3,5,6,7-hexahydropyrrolizin-8-yl]methoxy]-2,5-dimethyl-pyrazolo[4,3-f]quinazolin-9-yl]-4,6,7,8-tetrahydropyrazolo[1,5-a][1,4]diazepine-2-carboxamide]: the IC50 in experiment [1] and in experiment [2] was no more than 0.01 µM each time.

Consider `CCc1c(F)ccc2cc(O)cc(-c3c(C)c4nc(OC[C@@]56CCCN5C[C@H](F)C6)nc(N5CCCn6nc(C(=O)N7CCCC7)cc6C5)c4c4cn(C)nc34)c12` [Example 182, [5-[4-(8-ethyl-7-fluoro-3-hydroxy-1-naphthyl)-7-[[(2R,8S)-2-fluoro-1,2,3,5,6,7-hexahydropyrrolizin-8-yl]methoxy]-2,5-dimethyl-pyrazolo[4,3-f]quinazolin-9-yl]-4,6,7,8-tetrahydropyrazolo[1,5-a][1,4]diazepin-2-yl]-pyrrolidin-1-yl-methanone], for which the IC50 in experiment [1] and in experiment [2] was no more than 0.01 µM in each case.

Consider `CCc1c(F)ccc2cc(O)cc(-c3cc4nc(OC[C@@]56CCCN5C[C@H](F)C6)nc(N5CCCC5CO)c4c4cn(C)nc34)c12` (stereo partly drawn) [Example 183, 5-ethyl-6-fluoro-4-[9-[2-(hydroxymethyl)pyrrolidin-1-yl]-2-methyl-7-[[(2R,8S)-2-fluoro-1,2,3,5,6,7-hexahydropyrrolizin-8-yl]methoxy]pyrazolo[4,3-f]quinazolin-4-yl]naphthalen-2-ol], for which the IC50 in experiment [1] and in experiment [2] was no more than 0.01 µM each time.

In the case of `C#Cc1c(F)ccc2cc(O)cc(-c3c(C)c4nc(OC[C@@]56CCCN5C[C@H](F)C6)nc(N5CCC[C@@](C)(O)C5)c4c4cn(C)nc34)c12` [Example 184, (3R)-1-[4-(8-ethynyl-7-fluoro-3-hydroxy-1-naphthyl)-2,5-dimethyl-7-[[(2R,8S)-2-fluoro-1,2,3,5,6,7-hexahydropyrrolizin-8-yl]methoxy]pyrazolo[4,3-f]quinazolin-9-yl]-3-methyl-piperidin-3-ol], the IC50 in experiment [1] and in experiment [2] was no more than 0.01 µM throughout.

`C#Cc1c(F)ccc2cc(O)cc(-c3c(C)c4nc(OC[C@@]56CCCN5C[C@H](F)C6)nc(N5CCOCC(C)(O)C5)c4c4cn(C)nc34)c12` (stereo partly drawn) [Example 185, 4-[4-(8-ethynyl-7-fluoro-3-hydroxy-1-naphthyl)-7-[[(2R,8S)-2-fluoro-1,2,3,5,6,7-hexahydropyrrolizin-8-yl]methoxy]-2,5-dimethyl-pyrazolo[4,3-f]quinazolin-9-yl]-6-methyl-1,4-oxazepan-6-ol]: the values for the concentration for half-maximal inhibition (IC50) in experiment [1] and in experiment [2] were no more than 0.01 µM and 0.01 to 0.1 µM, respectively.

As to `CCc1c(F)ccc2cc(O)cc(-c3cc4nc(OC[C@@]56CCCN5C[C@H](F)C6)nc(N5CC6CCC(C5)N6CC(C)O)c4c4cn(C)nc34)c12` (stereo partly drawn) [Example 186, 5-ethyl-6-fluoro-4-[7-[[(2R,8S)-2-fluoro-1,2,3,5,6,7-hexahydropyrrolizin-8-yl]methoxy]-9-[8-(2-hydroxypropyl)-3,8-diazabicyclo[3.2.1]octan-3-yl]-2-methyl-pyrazolo[4,3-f]quinazolin-4-yl]naphthalen-2-ol], the concentration for half-maximal inhibition (IC50) in experiment [1] and in experiment [2] was 0.01 to 0.1 µM in each case.

For the compound `CCc1c(F)ccc2cc(O)cc(-c3c(F)c4nc(OCC5(CN6CCC(OC)CC6)CC5)nc(N5CCOCC(C)(O)C5)c4c4cn(C)nc34)c12` (stereo not drawn) [Example 187, 4-[4-(8-ethyl-7-fluoro-3-hydroxy-1-naphthyl)-5-fluoro-7-[[1-[(4-methoxy-1-piperidyl)methyl]cyclopropyl]methoxy]-2-methyl-pyrazolo[4,3-f]quinazolin-9-yl]-6-methyl-1,4-oxazepan-6-ol], the IC50 in experiment [1] and in experiment [2] was no more than 0.01 µM throughout.

As to `CCc1c(F)ccc2cc(O)cc(-c3c(F)c4nc(OCC5(CO)CC5)nc(N5CCOCC(C)(O)C5)c4c4cn(C)nc34)c12` (stereo not drawn) [Example 188, 4-[4-(8-ethyl-7-fluoro-3-hydroxy-1-naphthyl)-5-fluoro-7-[[1-(hydroxymethyl)cyclopropyl]methoxy]-2-methyl-pyrazolo[4,3-f]quinazolin-9-yl]-6-methyl-1,4-oxazepan-6-ol], the IC50 in experiment [1] and in experiment [2] was no more than 0.01 µM each time.

As for `CCc1c(F)ccc2cc(O)cc(-c3c(F)c4nc(OCC5(CN6CCC(F)(F)C6)CC5)nc(N5CCOCC(C)(O)C5)c4c4cn(C)nc34)c12` (stereo not drawn) [Example 189, 4-[7-[[1-[(3,3-difluoropyrrolidin-1-yl)methyl]cyclopropyl]methoxy]-4-(8-ethyl-7-fluoro-3-hydroxy-1-naphthyl)-5-fluoro-2-methyl-pyrazolo[4,3-f]quinazolin-9-yl]-6-methyl-1,4-oxazepan-6-ol], the IC50 in experiment [1] and in experiment [2] was 0.01 to 0.1 µM throughout.

Regarding `CCc1c(F)ccc2cc(O)cc(-c3c(F)c4nc(OCC5(CN6CC[C@H](O)C6)CC5)nc(N5CCOCC(C)(O)C5)c4c4cn(C)nc34)c12` (stereo partly drawn) [Example 190, 4-[4-(8-ethyl-7-fluoro-3-hydroxy-1-naphthyl)-5-fluoro-2-methyl-7-[[1-[[(3S)-3-hydroxypyrrolidin-1-yl]methyl]cyclopropyl]methoxy]pyrazolo[4,3-f]quinazolin-9-yl]-6-methyl-1,4-oxazepan-6-ol], the IC50 in experiment [1] and in experiment [2] was no more than 0.01 µM each time.

`CCc1c(F)ccc2cc(O)cc(-c3c(F)c4nc(OCC5(CN6CC(F)(F)C6)CC5)nc(N5CCOCC(C)(O)C5)c4c4cn(C)nc34)c12` (stereo not drawn) [Example 191, 4-[7-[[1-[(3,3-difluoroazetidin-1-yl)methyl]cyclopropyl]methoxy]-4-(8-ethyl-7-fluoro-3-hydroxy-1-naphthyl)-5-fluoro-2-methyl-pyrazolo[4,3-f]quinazolin-9-yl]-6-methyl-1,4-oxazepan-6-ol]: the IC50 was 0.01 to 0.1 µM in experiment [1] and no more than 0.01 µM in experiment [2].

With `CCc1c(F)ccc2cc(O)cc(-c3c(F)c4nc(OCC5(CN(C)CC(F)(F)F)CC5)nc(N5CCOCC(C)(O)C5)c4c4cn(C)nc34)c12` (stereo not drawn) [Example 192, 4-[4-(8-ethyl-7-fluoro-3-hydroxy-1-naphthyl)-5-fluoro-2-methyl-7-[[1-[[methyl(2,2,2-trifluoroethyl)amino]methyl]cyclopropyl]methoxy]pyrazolo[4,3-f]quinazolin-9-yl]-6-methyl-1,4-oxazepan-6-ol], the “KRAS^WT NEA” value in experiment [1] is given as “D (<49% inhibition at 10 μM)”. The compound also yielded an IC50 in experiment [2] of 0.1 to 10 µM.

In the case of `CCc1c(F)ccc2cc(O)cc(-c3c(F)c4nc(OCC5(CN6CC[C@@H](F)C6)CC5)nc(N5CCOCC(C)(O)C5)c4c4cn(C)nc34)c12` (stereo partly drawn) [Example 193, 4-[4-(8-ethyl-7-fluoro-3-hydroxy-1-naphthyl)-5-fluoro-2-methyl-7-[[1-[[(3R)-3-fluoropyrrolidin-1-yl]methyl]cyclopropyl]methoxy]pyrazolo[4,3-f]quinazolin-9-yl]-6-methyl-1,4-oxazepan-6-ol], the IC50 in experiment [1] and in experiment [2] was no more than 0.01 µM each time.

Turning to `CCc1c(F)ccc2cc(O)cc(-c3c(F)c4nc(OCC5(CN6CC[C@@H](O)C6)CC5)nc(N5CCOCC(C)(O)C5)c4c4cn(C)nc34)c12` (stereo partly drawn) [Example 194, 4-[4-(8-ethyl-7-fluoro-3-hydroxy-1-naphthyl)-5-fluoro-2-methyl-7-[[1-[[(3R)-3-hydroxypyrrolidin-1-yl]methyl]cyclopropyl]methoxy]pyrazolo[4,3-f]quinazolin-9-yl]-6-methyl-1,4-oxazepan-6-ol], the IC50 in experiment [1] and in experiment [2] was no more than 0.01 µM throughout.

`CCc1c(F)ccc2cc(O)cc(-c3c(F)c4nc(OC[C@@]56CCCN5C[C@H](F)C6)nc(N5CCCn6nc(C(=O)N7CCOCC7)cc6C5)c4c4cn(C)nc34)c12` [Example 195, [5-[4-(8-ethyl-7-fluoro-3-hydroxy-1-naphthyl)-5-fluoro-7-[[(2R,8S)-2-fluoro-1,2,3,5,6,7-hexahydropyrrolizin-8-yl]methoxy]-2-methyl-pyrazolo[4,3-f]quinazolin-9-yl]-4,6,7,8-tetrahydropyrazolo[1,5-a][1,4]diazepin-2-yl]-morpholino-methanone]: the half-maximal inhibitory concentration (IC50) in experiment [1] and in experiment [2] was no more than 0.01 µM each time.

On to `CCNC(=O)c1cc2n(n1)CCCN(c1nc(OC[C@@]34CCCN3C[C@H](F)C4)nc3c(F)c(-c4cc(O)cc5ccc(F)c(CC)c45)c4nn(C)cc4c13)C2` [Example 196, N-ethyl-5-[4-(8-ethyl-7-fluoro-3-hydroxy-1-naphthyl)-5-fluoro-7-[[(2R,8S)-2-fluoro-1,2,3,5,6,7-hexahydropyrrolizin-8-yl]methoxy]-2-methyl-pyrazolo[4,3-f]quinazolin-9-yl]-4,6,7,8-tetrahydropyrazolo[1,5-a][1,4]diazepine-2-carboxamide], for which the IC50 in experiment [1] and in experiment [2] was no more than 0.01 µM throughout.

Regarding `CCc1c(F)ccc2cc(O)cc(-c3c(F)c4nc(OC[C@@]56CCCN5C[C@H](F)C6)nc(N5CCCn6nc(C(=O)N7CCCC7)cc6C5)c4c4cn(C)nc34)c12` [Example 197, [5-[4-(8-ethyl-7-fluoro-3-hydroxy-1-naphthyl)-5-fluoro-7-[[(2R,8S)-2-fluoro-1,2,3,5,6,7-hexahydropyrrolizin-8-yl]methoxy]-2-methyl-pyrazolo[4,3-f]quinazolin-9-yl]-4,6,7,8-tetrahydropyrazolo[1,5-a][1,4]diazepin-2-yl]-pyrrolidin-1-yl-methanone], the IC50 in experiment [1] and in experiment [2] was no more than 0.01 µM each time.
